These results are taken from ChEMBL document CHEMBL3124775 (Bioorg Med Chem, 2014).

SMILES strings stand for the structures. pKi: −log10 of the molar value. Where only a bound is given, the exact number is not on record here.

One test addresses Carbonic anhydrase 9 (Homo sapiens, UniProt Q16790).
The target of the next test is Carbonic anhydrase 1 (Homo sapiens, UniProt P00915). The test can be described thus: Inhibition of human carbonic anhydrase 1 by stopped-flow CO2 hydrase assay.
The target of another test is Carbonic anhydrase 12 (Homo sapiens, UniProt O43570).
In the next test the target is Carbonic anhydrase 2 (Homo sapiens, UniProt P00918). The test can be described thus: Inhibition of human carbonic anhydrase 2 by stopped-flow CO2 hydrase assay.

Chain of Carbonic anhydrase 1 (P00915 whole entry): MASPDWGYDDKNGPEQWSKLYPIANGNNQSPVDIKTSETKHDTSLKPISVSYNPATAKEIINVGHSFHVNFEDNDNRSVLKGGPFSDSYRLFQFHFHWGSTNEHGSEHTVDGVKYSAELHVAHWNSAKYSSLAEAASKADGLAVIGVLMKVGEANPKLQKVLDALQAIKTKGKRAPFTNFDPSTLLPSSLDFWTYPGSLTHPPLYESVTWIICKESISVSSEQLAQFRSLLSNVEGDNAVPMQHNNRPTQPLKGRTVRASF
Chain of Carbonic anhydrase 12 (O43570 whole entry): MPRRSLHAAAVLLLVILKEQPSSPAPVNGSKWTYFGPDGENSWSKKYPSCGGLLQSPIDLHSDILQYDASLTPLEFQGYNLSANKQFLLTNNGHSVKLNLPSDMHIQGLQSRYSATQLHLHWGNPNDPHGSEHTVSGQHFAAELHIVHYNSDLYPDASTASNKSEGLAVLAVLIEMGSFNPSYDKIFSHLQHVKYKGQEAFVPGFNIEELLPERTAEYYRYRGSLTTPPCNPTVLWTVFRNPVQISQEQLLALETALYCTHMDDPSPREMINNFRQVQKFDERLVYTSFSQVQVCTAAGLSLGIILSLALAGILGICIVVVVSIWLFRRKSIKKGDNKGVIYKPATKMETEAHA
Description for Carbonic anhydrase 12: Inhibition of human carbonic anhydrase 12 by stopped-flow CO2 hydrase assay
Description for Carbonic anhydrase 9: Inhibition of human carbonic anhydrase 9 by stopped-flow CO2 hydrase assay

As a reminder, the pKi is the Ki on a negative log10 scale, so that one unit is a factor of ten. As for `CCOC(=O)CN1C(=O)c2ccccc2S1(=O)=O`, the pKi was 6.48 on Carbonic anhydrase 9, under 4.30 on Carbonic anhydrase 1 and 7.12 at Carbonic anhydrase 12.

As to `O=C1c2ccccc2S(=O)(=O)N1Cc1cccc([N+](=O)[O-])c1`, the results for the pKi on Carbonic anhydrase 1 and at Carbonic anhydrase 12 were under 4.30 and 7.61, respectively.

On to `C#CCN1C(=O)c2ccccc2S1(=O)=O`, for which the pKi at Carbonic anhydrase 9 is 6.68; at Carbonic anhydrase 1 it was under 4.30; on Carbonic anhydrase 12, 6.24.

Take `O=C(CN1C(=O)c2ccccc2S1(=O)=O)c1cccc([N+](=O)[O-])c1`: the pKi on Carbonic anhydrase 9 was under 4.30; on Carbonic anhydrase 1, under 4.30; on Carbonic anhydrase 12, 5.70; at Carbonic anhydrase 2, under 4.30.

`O=C1c2ccccc2S(=O)(=O)N1Cc1ccccc1[N+](=O)[O-]`: the negative-log Ki (pKi) at Carbonic anhydrase 9 was 7.04; on Carbonic anhydrase 1, under 4.30; at Carbonic anhydrase 12, 7.55.

For the compound `CNC(=O)CN1C(=O)c2ccccc2S1(=O)=O`, the pKi on Carbonic anhydrase 9 is 6.70; at Carbonic anhydrase 1 it was under 4.30; on Carbonic anhydrase 12, 7.55; at Carbonic anhydrase 2, 7.42.

For the compound `O=C1c2ccccc2S(=O)(=O)N1Cc1c(F)cccc1F`, the pKi on Carbonic anhydrase 9 was under 4.30; at Carbonic anhydrase 1, under 4.30; at Carbonic anhydrase 12, 5.88.

With `O=C1c2ccccc2S(=O)(=O)N1Cc1cccc(Br)c1`, the pKi at Carbonic anhydrase 9 was 6.44; at Carbonic anhydrase 1, under 4.30; on Carbonic anhydrase 12, 7.68.

As for `C=CCN1C(=O)c2ccccc2S1(=O)=O`, the pKi at Carbonic anhydrase 9 was 6.85; at Carbonic anhydrase 1, under 4.30; on Carbonic anhydrase 12 it was 7.03.

For `O=C1c2ccccc2S(=O)(=O)N1Cc1ccccc1F`, the pKi on Carbonic anhydrase 9 is under 4.30; at Carbonic anhydrase 1, under 4.30; at Carbonic anhydrase 12, 5.60; on Carbonic anhydrase 2 it was under 4.30.

On to `O=C1c2ccccc2S(=O)(=O)N1Cc1cc(-c2ccc([N+](=O)[O-])cc2)no1`, for which the figures for the pKi at Carbonic anhydrase 9, on Carbonic anhydrase 1 and at Carbonic anhydrase 2 were 6.51, under 4.30 and under 4.30, respectively.

For `O=S1(=O)N=C(OCc2cccc(Br)c2)c2ccccc21`, the pKi at Carbonic anhydrase 9, on Carbonic anhydrase 1, on Carbonic anhydrase 12 and at Carbonic anhydrase 2 was under 4.30 throughout.

Turning to `N#Cc1ccc(CN2C(=O)c3ccccc3S2(=O)=O)cc1`, the pKi at Carbonic anhydrase 9 is 6.62; on Carbonic anhydrase 1 it was under 4.30; at Carbonic anhydrase 12 it was 6.82.

Consider `O=C(CN1C(=O)c2ccccc2S1(=O)=O)c1ccccc1`, for which the pKi on Carbonic anhydrase 9 is under 4.30; at Carbonic anhydrase 1, under 4.30; at Carbonic anhydrase 12 it was 5.75; on Carbonic anhydrase 2, under 4.30.

`CC(=O)CN1C(=O)c2ccccc2S1(=O)=O`: the pKi on Carbonic anhydrase 9 was 6.82; on Carbonic anhydrase 1, under 4.30; at Carbonic anhydrase 12, 6.36.

As for `C/C(CN1C(=O)c2ccccc2S1(=O)=O)=N\O` (mixture of isomers), the values for the pKi at Carbonic anhydrase 9, on Carbonic anhydrase 1 and on Carbonic anhydrase 12 were 6.57, under 4.30 and 6.62, respectively.

`N#CCCCN1C(=O)c2ccccc2S1(=O)=O`: the pKi is 6.54 at Carbonic anhydrase 9, under 4.30 at Carbonic anhydrase 1 and under 4.30 on Carbonic anhydrase 12.

`N#CCN1C(=O)c2ccccc2S1(=O)=O`: the negative-log Ki (pKi) at Carbonic anhydrase 9 is 6.54; on Carbonic anhydrase 1 it was under 4.30; at Carbonic anhydrase 12 it was 6.15; on Carbonic anhydrase 2, under 4.30.

As for `O=C1c2ccccc2S(=O)(=O)N1Cc1cccc(F)c1`, the pKi on Carbonic anhydrase 9 was 6.42; on Carbonic anhydrase 1 it was under 4.30; at Carbonic anhydrase 12 it was 5.57.

Turning to `C/C=C/CN1C(=O)c2ccccc2S1(=O)=O`, the pKi at Carbonic anhydrase 9 was 7.01; at Carbonic anhydrase 1 it was under 4.30; at Carbonic anhydrase 12, 6.68.

In the case of `O=C1c2ccccc2S(=O)(=O)N1CC(O)COc1ccc(Cl)cc1` (stereo unspecified), the pKi on Carbonic anhydrase 9 was 6.64; on Carbonic anhydrase 1, under 4.30; on Carbonic anhydrase 12 it was 5.54; at Carbonic anhydrase 2, 5.74.

Take `O=[N+]([O-])c1ccccc1CNS(=O)(=O)c1ccccc1CO`: the pKi at Carbonic anhydrase 9 is under 4.30; at Carbonic anhydrase 1 it was under 4.30; at Carbonic anhydrase 12 it was 6.60; at Carbonic anhydrase 2 it was under 4.30.

In the case of `O=C1c2ccccc2S(=O)(=O)N1Cc1ccccc1Br`, the values for the pKi on Carbonic anhydrase 9, at Carbonic anhydrase 1 and at Carbonic anhydrase 12 were under 4.30, under 4.30 and 7.60, respectively.

For the compound `O=C1c2ccccc2S(=O)(=O)N1Cc1ccc(Cl)c(Cl)c1`, the pKi on Carbonic anhydrase 9 was 6.41; at Carbonic anhydrase 1, under 4.30; on Carbonic anhydrase 12, 5.56; at Carbonic anhydrase 2 it was under 4.30.

For the compound `O=C1c2ccccc2S(=O)(=O)N1Cc1cccc2ccccc12`, the pKi was under 4.30 on Carbonic anhydrase 9, under 4.30 on Carbonic anhydrase 1, 5.60 at Carbonic anhydrase 12 and under 4.30 on Carbonic anhydrase 2.

Regarding `O=C(CN1C(=O)c2ccccc2S1(=O)=O)c1ccccc1[N+](=O)[O-]`, the pKi is under 4.30 on Carbonic anhydrase 9, under 4.30 at Carbonic anhydrase 1, 6.01 at Carbonic anhydrase 12 and under 4.30 on Carbonic anhydrase 2.

In the case of `O=C1c2ccccc2C(=O)N1CN1C(=O)c2ccccc2S1(=O)=O`, the pKi was under 4.30 on Carbonic anhydrase 9, under 4.30 on Carbonic anhydrase 1, 4.87 at Carbonic anhydrase 12 and under 4.30 on Carbonic anhydrase 2.

As for `O=C(O)CN1C(=O)c2ccccc2S1(=O)=O`, the pKi on Carbonic anhydrase 9 was 6.51; at Carbonic anhydrase 1 it was under 4.30; on Carbonic anhydrase 12 it was 7.38; at Carbonic anhydrase 2, under 4.30.
